The record followed here is patent US20180022711A1, “NOVEL CRYSTAL FORMS OF THE MONOSODIUM SALT OF FORAMSULFURON” (BAYER CROPSCIENCE AKTIENGESELLSCHAFT, priority 2014, published 2018).

Molecules are shown by their SMILES. Entries after “also recorded” stand apart in the source; their conditions may differ.

Type in all cases: physicochemical
The nature of data set [1]: Storage of methanol-moist crystal form A and conversion into crystal form C. On the procedure:
In separate containers, 5 g each of crystal form A were each stirred with 20 g of MeOH and subsequently filtered off.
At 20° C., 30° C. and 35° C., the moistened products were stored for one week and a sample taken daily. These samples were dried at 65° C. and 100 mbar and the respective methanol content subsequently determined.
Already after 2 days (35° C.), 3 days (30° C.) and 7 days (20° C.), crystal form A had converted practically completely into crystal form C (MeOH content about 6.4% by weight).

Data set [2] can be described thus: Hygroscopicity: open storage over water for one week at 25° C., water content by Karl Fischer titration. The conditions noted are these: for Water content of the sample after storage: one week at 25° C. in sealed beaker over water, Karl Fischer titration. As for the experimental part:
100 mg each of crystal forms A, B and C were separately filled into small glass vials with snap-on caps. These three glass vials with snap-on caps were placed unsealed in a glass beaker of which the bottom was covered with a small amount of water. The glass beaker was then sealed with a reversible sealing film and stored for one week at 25° C. After this storage period, the water content of the respective sample was determined by Karl Fischer titration.

A short description of data set [3]: Stability test of crystal form B in methanol. The conditions noted are these: suspended in methanol, stirred 7 days at 30° C., filtered and dried. On the procedure: 10 g of crystal form B (MeOH content<0.01%) were suspended in 100 g of methanol and stirred for 7 days at 30° C. The product was filtered and then dried overnight at 70° C. and a pressure<100 mbar. 9.1 g of a 99.4% strength product were obtained. The methanol content in the product obtained was 0.004% by weight and the acetone content was 0.0003% by weight.

The nature of data set [4]: Sorption/desorption curve, isothermal at 25° C. The following applies: for Desorption (% by weight) / Sorption (% by weight): 25° C. As for the experimental part: Sorption and desorption curves of crystal form B were measured isothermically at 25° C. The sorption curve gives the water uptake at increasing relative humidity and the desorption curve gives the drying behaviour on moisture reduction.

Regarding `COc1cc(OC)nc(NC(=O)NS(=O)(=O)c2cc(NC=O)ccc2C(=O)N(C)C)n1.[Na]` [Crystal form A, reference compound], the “Time until practically complete conversion into crystal form C” value in data set [1] (stored at 20° C.) came out at 7 days; in data set [1] (stored at 30° C.), 3 days; in data set [1] (stored at 35° C.) it was 2 days. Besides, in data set [2] (listed as crystal form A), the “Water content of the sample after storage” value (shortened to “Water content of the sample”) is given as 15.7 % by weight. In addition, the “Appearance of the sample after storage” value in data set [2] (one week at 25° C. over water) is “very ductile and sticky”. Further, the “Hygroscopicity (in words)” value in data set [2] (one week at 25° C. over water) is “hygroscopic”.

For `COc1cc(OC)nc(NC(=O)[N-]S(=O)(=O)c2cc(NC=O)ccc2C(=O)N(C)C)n1.[Na+]` [Crystal form B, monosodium salt of foramsulfuron], the “Methanol content in the product obtained” value in data set [3] is 0.004 % by weight. Moreover, the “Hygroscopicity (in words)” value in data set [4] (conclusion from sorption/desorption at 25° C.) is on record as “not hygroscopic; also recorded: non-hygroscopic”. Moreover, the “Desorption (% by weight)” value in data set [4] (relative humidity 10.0%) worked out at 0.846 % by weight; in data set [4] (relative humidity 20.0%) it was 1.227 % by weight; in data set [4] (relative humidity 30.0%), 1.495 % by weight; in data set [4] (relative humidity 40.0%), 1.760 % by weight; in data set [4] (relative humidity 50.0%), 2.086 % by weight; in data set [4] (relative humidity 60.0%), 2.269 % by weight. Moreover, the “Desorption (% by weight)” value in data set [4] (relative humidity 70.0%) was determined as 2.485 % by weight; in data set [4] (relative humidity 80.0%) it was 3.016 % by weight; in data set [4] (relative humidity 90.0%), 5.151 % by weight. The “Sorption (% by weight)” value was found to be 0.100 % by weight in data set [4] (relative humidity 10.0%); 0.201 % by weight in data set [4] (relative humidity 20.0%); 0.313 % by weight in data set [4] (relative humidity 30.0%); 0.444 % by weight in data set [4] (relative humidity 40.0%); 0.566 % by weight in data set [4] (relative humidity 50.0%); 0.684 % by weight in data set [4] (relative humidity 60.0%). For the same compound, the “Sorption (% by weight)” value in data set [4] (relative humidity 70.0%) is given as 0.864 % by weight; in data set [4] (relative humidity 80.0%), 1.085 % by weight; in data set [4] (relative humidity 90.0%) it was 2.335 % by weight. For the same compound, the “Water content of the sample” value in data set [2] was found to be 0.4 % by weight. Further, in data set [2] (one week at 25° C. over water), the “Appearance of the sample after storage” value was “still crystalline and powdery”.

On to `COc1cc(OC)nc(NC(=O)NS(=O)(=O)c2cc(NC=O)ccc2C(=O)N(C)C)n1.[Na]` [Crystal form C], for which the “Water content of the sample” value in data set [2] (listed as crystal form C) was 21.3 % by weight.
